From PubChem BioAssay AID1350 (Sanford-Burnham Center for Chemical Genomics, 2008)
Activity calls are given as the source filed them.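 Rule for the calls: active = wells where survival under tumor necrosis factor attack stays above 50% of untreated control at 25 µM; inactive = the rest.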

system: CSM14.1 TNF/CHX-induced death, ATPlite luminescence, 24 h; assay: protection against TNF-triggered CSM14.1 death, SAR follow-up, selectivity assay for ER stress death inhibitor project, cell-based, undifferentiated CSM14.1, ATP luminescence (AID 1350); conditions: at 25 µM; hits give high values

| SMILES | survival |
| --- | --- |
| CCCOc1ccc(C2Nc3ccccc3NC3=C2C(=O)CC(c2ccc(OC)c(OC)c2)C3)cc1 (stereo unspecified) | 45% (inactive) |
| COc1ccc(C2CC(=O)C3=C(C2)Nc2ccccc2NC3c2cccc(Br)c2)cc1OC (stereo unspecified) | 38% (inactive) |
| O=C1CC(c2ccccc2)CC2=C1C(c1c(F)cccc1Cl)Nc1ccccc1N2 (stereo unspecified) | 32% (inactive) |
| COc1ccc(C2CC(=O)C3=C(C2)Nc2ccccc2NC3c2cccc(Oc3ccccc3)c2)cc1OC (stereo unspecified) | 39% (inactive) |
| CSc1ccc(C2Nc3ccccc3NC3=C2C(=O)CC(c2ccccc2)C3)cc1 (stereo unspecified) | 43% (inactive) |
| COc1ccc(C2CC(=O)C3=C(C2)Nc2ccccc2NC3c2ccccc2C(F)(F)F)cc1OC (stereo unspecified) | 37% (inactive) |
| COc1ccc(C2CC(=O)C3=C(C2)Nc2ccccc2NC3c2cccc(C(F)(F)F)c2)cc1OC (stereo unspecified) | 37% (inactive) |
| CCOc1cc(C2Nc3ccccc3NC3=C2C(=O)CC(c2ccc(OC)cc2)C3)cc(Cl)c1O (stereo unspecified) | 33% (inactive) |
| CC1(C)CC(=O)C2=C(C1)Nc1ccccc1NC2c1ccc(-c2ccccc2)cc1 (stereo unspecified) | 46% (inactive) |
| CCOc1cccc(C2Nc3ccccc3NC3=C2C(=O)CC(c2ccc(OC)cc2)C3)c1 (stereo unspecified) | 40% (inactive) |
| COc1ccc(C2CC(=O)C3=C(C2)Nc2ccccc2NC3c2cc(C)ccc2C)cc1 (stereo unspecified) | 39% (inactive) |
